The source of these data is patent US11807627B2, “Morphic forms of complement factor D inhibitors” (priority 2018, dated 2023).

Broadly, the solubility is the concentration that dissolves in the medium under given conditions.

Holding throughout (format): physicochemical
A short description of data set [1]: Interconversion experiments: competitive slurries (Example 2, Table 6). On the procedure:
A solution of Compound 3 and solvent/solvent system of interest was prepared. Solids persisted in solution. The samples were placed onto a stir plate at ambient (RT) or elevated (ET) temperatures. The samples were monitored to ensure that solids persisted during the slurry process. The solids were collected via vacuum filtration and dried under ambient conditions. […] At ambient temperature, Forms B and M are both present after almost a week of slurrying.

Data set [2] is described as follows: Vapor stress experiments at room temperature. The text has this: Compound 3 was placed into vials which were sealed into chambers containing organic solvents. The samples were kept under these conditions for a period of days and then checked for signs of morphology changes.
A short description of data set [3]: Interconversion experiments: heat stress of forms (Table 6). As to conditions: no solvent. How it is done: Saturated solutions of Compound 3 or solids generated from crystallization attempts were prepared. A small quantity of the sample was placed into an oven set at a specified temperature. The samples were monitored, microscopically, for signs of crystallization.

Data set [4] can be described thus: Drying of isolated samples at 50° C. for approximately 24 hours. How it is done:
Samples produced from thermal cycling, cooling and evaporation experiments were dried at 50° C. for approximately 24 hours to assess any de-solvation/dehydration. From temperature cycling experiments, 3 samples converted upon drying: • Acetonitrile sample converted from Form J to amorphous; • 40% Ethanol/60% Water (% v/v) converted from Form N to Form P; and • Methanol sample converted from Form O to amorphous.

Data set [5] in a line: Thermogravimetric/differential thermal analysis (TG/DTA). To be noted: Table 22B. On the procedure:
Approximately, 5 mg of material was weighed into an open aluminium pan and loaded into a simultaneous thermogravimetric/differential thermal analyzer (TG/DTA) and held at room temperature. The sample was then heated at a rate of 10° C./min from 20° C. to 400° C. during which time the change in sample weight occurred was recorded along with any differential thermal events (DTA). Nitrogen was used as the purge gas at a flow rate of 300 cm^3/min.

A short description of data set [6]: Storage stability of Compound 3 forms (80° C., 40° C./75% RH, 25° C./60% RH, ambient). As to conditions: 40° C./75% RH or 25° C./60% RH, capped or uncapped vial. On the procedure: No changes by XRPD or HPLC purity were observed when the material was stored at 40° C./75% RH, 80° C. or under ambient conditions.
A short description of data set [7]: Solvent solubility screen by solvent addition (lyophilized material). To be noted: thermodynamic from solid. On the procedure: A solvent solubility screen was conducted using 32 solvent systems. Approximately 360 mg of Compound 3 Form A was weighed into a 20 mL glass vial and dissolved using 18 mL of 1,4-dioxane. 0.5 mL of the solution was then dispensed into thirty-four 2 mL glass vials (approx. 10 mg per vial). The Compound 3 Form A solutions were then frozen (at −50° C.) and dried by lyophilization using a Lablyo mini freeze drier. Post-lyophilization, a sub-sample was taken and analyzed by XRPD. Material was successfully rendered amorphous by lyophilization.
The material produced from lyophilization was used for the solubility assessment. Solubility was estimated by a solvent addition technique. The solubility study was completed as follows: • Each solvent system was added to the appropriate vial in 5 volume aliquots until 100 volumes had been added or until the API dissolved; • Between each addition, samples were heated to 40° C. to check dissolution at elevated temperatures; • If 100 volumes of solvent were added without dissolution, solubility was calculated to be below this point.

Like-named read-outs stand apart in the source and are kept apart here.

As for `CC(=O)c1nn(CC(=O)N2[C@H](C(=O)Nc3nc(Br)ccc3C)C[C@@]3(C)C[C@@H]23)c2ccc(-c3cnc(C)nc3)cc12` [A vs. B], the “Interconversion: XRPD Result after slurry” value in data set [1] (ACN, RT Slurry) is “Form E”; in data set [1] (EtOAc, RT Slurry) it was “Form B”; in data set [1] (EtOAc, ~50° C. Slurry), “Form B”.

On to `CC(=O)c1nn(CC(=O)N2[C@H](C(=O)Nc3nc(Br)ccc3C)C[C@@]3(C)C[C@@H]23)c2ccc(-c3cnc(C)nc3)cc12` [A, B, G], for which the “Interconversion: XRPD Result after slurry” value in data set [1] (EtOAc, RT Slurry) is on record as “Form B”.

Turning to `CC(=O)c1nn(CC(=O)N2[C@H](C(=O)Nc3nc(Br)ccc3C)C[C@@]3(C)C[C@@H]23)c2ccc(-c3cnc(C)nc3)cc12` [B, G, M], in data set [1] (EtOAc, ~50° C. Slurry), the “Interconversion: XRPD Result after slurry” value is “Form M*”.

As for `CC(=O)c1nn(CC(=O)N2[C@H](C(=O)Nc3nc(Br)ccc3C)C[C@@]3(C)C[C@@H]23)c2ccc(-c3cnc(C)nc3)cc12` [Disordered], the “Vapor stress: XRPD Result” value is given as “Form B” in data set [2] (EtOAc vapor) and “Form C” in data set [2] (MTBE vapor).

In the case of `CC(=O)c1nn(CC(=O)N2[C@H](C(=O)Nc3nc(Br)ccc3C)C[C@@]3(C)C[C@@H]23)c2ccc(-c3cnc(C)nc3)cc12` [Form C], the “Interconversion: XRPD Result after heating” value in data set [3] (~50° C.) is “Form C”.

Regarding `CC(=O)c1nn(CC(=O)N2[C@H](C(=O)Nc3nc(Br)ccc3C)C[C@@]3(C)C[C@@H]23)c2ccc(-c3cnc(C)nc3)cc12` [Form E], in data set [3] (~50° C.), the “Interconversion: XRPD Result after heating” value was “Form G”.

`CC(=O)c1nn(CC(=O)N2[C@H](C(=O)Nc3nc(Br)ccc3C)C[C@@]3(C)C[C@@H]23)c2ccc(-c3cnc(C)nc3)cc12` [Form F + C]: the “Interconversion: XRPD Result after heating” value in data set [3] (~50° C.) is “Form F + C”.

As for `CC(=O)c1nn(CC(=O)N2[C@H](C(=O)Nc3nc(Br)ccc3C)C[C@@]3(C)C[C@@H]23)c2ccc(-c3cnc(C)nc3)cc12` [Form G], the “Interconversion: XRPD Result after heating” value in data set [3] (~50° C.) is given as “Form G”; in data set [3] (~160° C.), “Form M”.

For `CC(=O)c1nn(CC(=O)N2[C@H](C(=O)Nc3nc(Br)ccc3C)C[C@@]3(C)C[C@@H]23)c2ccc(-c3cnc(C)nc3)cc12` [Form J + Form L], the “Interconversion: XRPD Result after heating” value in data set [3] (~50° C.) was “Form G”.

With `CC(=O)c1nn(CC(=O)N2[C@H](C(=O)Nc3nc(Br)ccc3C)C[C@@]3(C)C[C@@H]23)c2ccc(-c3cnc(C)nc3)cc12` [Form M], the “Relative stability in competitive slurry” value in data set [1] (Forms B and M, approximately 50° C.) is reported as “most stable”.

For `CC(=O)c1nn(CC(=O)N2[C@H](C(=O)Nc3nc(Br)ccc3C)C[C@@]3(C)C[C@@H]23)c2ccc(-c3cnc(C)nc3)cc12` [Form N], the “Form after drying (de-solvation/dehydration)” value in data set [4] is given as “Form P”. Moreover, the “Onset Temp: Weak thermal events” value in data set [5] was “onset of 134.7 °C”.

With `CC(=O)c1nn(CC(=O)N2[C@H](C(=O)Nc3nc(Br)ccc3C)C[C@@]3(C)C[C@@H]23)c2ccc(-c3cnc(C)nc3)cc12` [Form O], in data set [4], the “Form after drying (de-solvation/dehydration)” value is on record as “amorphous”. Also, in data set [5] (listed as Pattern O), the “Onset Temp: Melting” value was “Melting 179.6 °C”.

Regarding `CC(=O)c1nn(CC(=O)N2[C@H](C(=O)Nc3nc(Br)ccc3C)C[C@@]3(C)C[C@@H]23)c2ccc(-c3cnc(C)nc3)cc12` [Lyophilized Compound 3], the “Stability: recrystallization upon storage” value in data set [6] is reported as “no recrystallization”. The solubility in data set [7] (2-propanol/heptane mixtures, organic solvent or mixture, 2-propanol, 95% 2-propanol/5% heptane, 70% 2-propanol/30% heptane, toluene, elevated temperatures (40° C.), read-out: Solubility (solvent addition), dissolution at elevated temperatures) was above 200 mg/mL; in data set [7] (organic solvent or mixture, 1,4-dioxane, 1-butanol, 2-methyl THF, 95% 2-propanol/5% water, acetone, acetonitrile, 95% acetonitrile/5% water, chloroform, DCM, DMSO, ethyl acetate (dry), ethanol, isopropyl acetate, methanol, MEK, MIBK, DMF, DMA, THF, 95% methanol/5% water, read-out: Solubility (solvent addition)), at least 200 mg/mL; in data set [7] (organic solvent or mixture, 50% 2-propanol/50% heptane and 50% ethanol/50% heptane (% v/v), read-out: Solubility (solvent addition)), above 100 mg/mL; in data set [7] (n-heptane, tert-butylmethyl ether, ethyl ether, water, 50% 2-propanol/50% water, 40% ethanol/60% water, read-out: Solubility (solvent addition)) it was below 10 mg/mL.
